Data published in patent US8022043B2, “Ceramide derivatives as modulators of immunity and autoimmunity” (Albert Einstein College of Medicine of Yeshiva University, priority 2004, dated 2011).

Experiments:
[1] = test system: C57BL/6 mice; assay: Serum IL-4 and IFNγ after a single i.p. injection; type: in vivo
Description: Serum levels of L-4 and IFNγ after a single injection of DB01-1, DB03-4, or DB03-5 are shown. C57BL/6 mice (11-13 weeks old) were given a single i.p. injection of 4.8 nanomoles of the compounds or phosphate buffered saline (PBS)/vehicle control. Serum cytokine levels were measured 2 and 20 hours later by capture ELISA. Bars show means of three mice, with standard deviation. Note that DB01-1 has nearly identical structure to KRN7000 (C24 fatty acid as compared to C26) and has activity that is indistinguishable from KRN7000 in multiple bioassays. We use DB01-1 as a “KRN7000 mimic” because it has been synthesized by our group and is readily available for our studies, and KRN7000 was unavailable due to license restrictions.
A most intriguing property of KRN7000 analogues is that in some cases they may elicit immune responses that are qualitatively different from those that occur following stimulation with the parent compound. […] This selective activation of IL-4 production by NK T cells was proposed to be the basis for the enhanced therapeutic effects of OCH in the EAE model of central nervous system autoimmune disease. We have observed a similar in vivo effect on the nature of the NK T cell response using several of our ceramide-like glycolipids. […] These responses are similar to those seen for DB01-1, an analogue that is structurally almost identical to KRN7000 (C24 fatty acid instead of C26, otherwise identical) and indistinguishable in terms of its activity in our hands. […] This selective IL-4 induction is virtually identical to that reported for the OCH analogue, and thus illustrates the potential for amino substituted analogues of KRN7000 to induce qualitatively different immunomodulatory effects in vivo. The results reported in FIG. 9 were obtained by measuring serum levels of IL-4 and IFNγ after administering a single injection of […], DB03-4, or DB03-5 to C57BL/6 mice. C57BL/6 mice (11-13 weeks old) were given a single i.p. injection of 4.8 nanomoles of the ceramide-like glycolipids or PBS/vehicle control. Serum cytokine levels were measured 2 and 20 hours later by capture ELISA. Bars show means of three mice, with standard deviation.
For experiments involving in vivo treatment of mice with the ceramide-like glycolipids, the ceramide-like glycolipids were administered by i.p. or i.v. injection in 0.2 ml PBS+0.025% Tween-20, or in vehicle alone. A typical dose is about 4-5 nmoles per animal per injection. Representative references for administering an α-galactosyl ceramide to mice by i.p., i.v. or p.o. routes are S. Sharif et al., Activation of natural killer T cells by alpha-galactosylceramide treatment prevents the onset and recurrence of autoimmune Type 1 diabetes, Nat. Med., Sep. 7, 2001, (9):1057-62 and K. Miyamoto et al., A synthetic glycolipid prevents autoimmune encephalomyelitis by inducing TH2 bias of natural killer T cells, Nature. Oct. 4, 2001, 413(6855):5314.

[2] = test system: human NKT cell clones; assay: Human in vitro NKT cell assay system; type: cell-based; details: proliferative responses and cytokine secretion
Excerpt: For example, DB03-4 and DB03-5 are active in stimulation of human NKT cell clones in vitro, and elicits proliferative responses and cytokine secretion when evaluated using culture systems previously established in the literature (See, e.g., Spada F M, Sugita M, Watts G F M, Koezuka Y, and Porcelli S A. Low expression but potent antigen presenting function of CD1d on monocyte lineage cells, Eur. J. Immunol., 30:3468-3477 (2000), and Spada F M, Koezuka Y, Porcelli S A, CD1d-restricted recognition of synthetic glycolipid antigens by human NK T cells. J Exp Med; 188:1529-1534 (1998), see also, Lee P T et al., J Clin Invest., 2002 September; 110(6):793-800. […] Acad. Sci. (USA), 102:3383-8 (2005)).

SMILES: CCCCC/C=C\C/C=C\CCCCCCCCCC(=O)N[C@@H](COC1OC(CO)C(O)C(O)C1O)[C@H](O)[C@H](O)CCCCCCCCCCCCCC (stereo partly drawn) [DB03-4]
- serum IFNγ response ([1]; 20 hours after single i.p. injection of 4.8 nanomoles): not seen
- serum IL-4 response ([1]; two hours after single i.p. injection of 4.8 nanomoles): strong IL-4 response
- stimulation of human NKT cell clones [2]: active
